pIC50: −log10 of the molar value.
System: HUVEC/MSC spheroids viability
Experiment: Human HUVEC/MSC cell line growth inhibition [KRAS2];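 for viability, T/C: percent of DMSO vehicle control luminescence so 100% = untreated viability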
Conditions: for pIC50: curve of first compound; for viability, T/C: stronger effect = lower value
In short: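 HUVEC + hMSC stromal spheroids only, no malignant cells; 37 °C, 5% CO2. Drugs singly and in pairs, half-log series down from clinical Cmax (max 10 microM if Cmax undetermined).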

[1] = second compound 0.0316 µM, first compound 0.0316 µM
[2] = second compound 0.0316 µM, first compound 0.1 µM
[3] = second compound 0.0316 µM, first compound 0.316 µM
[4] = second compound 0.0316 µM, first compound 1 µM
[5] = second compound 0.0316 µM, first compound 3.16 µM
[6] = second compound 0.0316 µM, first compound 10 µM
[7] = second compound 0.1 µM, first compound 0.0316 µM
[8] = second compound 0.1 µM, first compound 0.1 µM
[9] = second compound 0.1 µM, first compound 0.316 µM
[10] = second compound 0.1 µM, first compound 1 µM
[11] = second compound 0.1 µM, first compound 3.16 µM
[12] = second compound 0.1 µM, first compound 10 µM
[13] = second compound 0.316 µM, first compound 0.0316 µM
[14] = second compound 0.316 µM, first compound 0.1 µM
[15] = second compound 0.316 µM, first compound 0.316 µM
[16] = second compound 0.316 µM, first compound 1 µM
[17] = second compound 0.316 µM, first compound 3.16 µM
[18] = second compound 0.316 µM, first compound 10 µM
[19] = second compound 1 µM, first compound 0.0316 µM
[20] = second compound 1 µM, first compound 0.1 µM
[21] = second compound 1 µM, first compound 0.316 µM
[22] = second compound 1 µM, first compound 1 µM
[23] = second compound 1 µM, first compound 3.16 µM
[24] = second compound 1 µM, first compound 10 µM
[25] = second compound 3.16 µM, first compound 0.0316 µM
[26] = second compound 3.16 µM, first compound 0.1 µM
[27] = second compound 3.16 µM, first compound 0.316 µM
[28] = second compound 3.16 µM, first compound 1 µM
[29] = second compound 3.16 µM, first compound 3.16 µM
[30] = second compound 3.16 µM, first compound 10 µM
[31] = second compound 10 µM, first compound 0.0316 µM
[32] = second compound 10 µM, first compound 0.1 µM
[33] = second compound 10 µM, first compound 0.316 µM
[34] = second compound 10 µM, first compound 1 µM
[35] = second compound 10 µM, first compound 3.16 µM
[36] = second compound 10 µM, first compound 10 µM

Compound: CCNC(=O)CC1N=C(c2ccc(Cl)cc2)c2cc(OC)ccc2-n2c(C)nnc21 (centres undefined) + COc1cc2nc(C)nc(NC(C)c3cc(N)cc(C(F)(F)F)c3)c2cc1OC1CCOC1
- pIC50 (second compound 0.0316 µM): < 5.00
- pIC50 (second compound 0.1 µM): < 5.00
- pIC50 (second compound 0.316 µM): < 5.00
- pIC50 (second compound 1 µM): < 5.00
- pIC50 (second compound 3.16 µM): < 5.00
- pIC50 (second compound 10 µM): < 5.00
- viability, T/C [1]: 89.6%
- viability, T/C [2]: 94%
- viability, T/C [3]: 94.3%
- viability, T/C [4]: 113%
- viability, T/C [5]: 114%
- viability, T/C [6]: 120%
- viability, T/C [7]: 78.7%
- viability, T/C [8]: 86.2%
- viability, T/C [9]: 89.3%
- viability, T/C [10]: 85.6%
- viability, T/C [11]: 124%
- viability, T/C [12]: 84.3%
- viability, T/C [13]: 86.4%
- viability, T/C [14]: 90.2%
- viability, T/C [15]: 105%
- viability, T/C [16]: 99.6%
- viability, T/C [17]: 89.5%
- viability, T/C [18]: 88.5%
- viability, T/C [19]: 89.8%
- viability, T/C [20]: 79.9%
- viability, T/C [21]: 73%
- viability, T/C [22]: 105%
- viability, T/C [23]: 100%
- viability, T/C [24]: 90%
- viability, T/C [25]: 73.5%
- viability, T/C [26]: 81.1%
- viability, T/C [27]: 75.9%
- viability, T/C [28]: 82.3%
- viability, T/C [29]: 84.6%
- viability, T/C [30]: 109%
- viability, T/C [31]: 60.6%
- viability, T/C [32]: 55.9%
- viability, T/C [33]: 69.5%
- viability, T/C [34]: 70%
- viability, T/C [35]: 82.1%
- viability, T/C [36]: 74.8%

Compound: Cn1nccc1Nc1nccc(-c2cc3c(s2)C(C)(C)N(CCN2CCOCC2)C3=O)n1 + COc1cc2nc(C)nc(NC(C)c3cc(N)cc(C(F)(F)F)c3)c2cc1OC1CCOC1
- pIC50 (second compound 0.0316 µM): 5.62
- pIC50 (second compound 0.1 µM): 5.63
- pIC50 (second compound 0.316 µM): 5.59
- pIC50 (second compound 1 µM): 5.59
- pIC50 (second compound 3.16 µM): 5.59
- pIC50 (second compound 10 µM): 5.65
- viability, T/C [1]: 104%
- viability, T/C [2]: 124%
- viability, T/C [3]: 124%
- viability, T/C [4]: 108%
- viability, T/C [5]: 32.1%
- viability, T/C [6]: 4.35%
- viability, T/C [7]: 90.2%
- viability, T/C [8]: 115%
- viability, T/C [9]: 110%
- viability, T/C [10]: 92.1%
- viability, T/C [11]: 34.4%
- viability, T/C [12]: 4.06%
- viability, T/C [13]: 108%
- viability, T/C [14]: 119%
- viability, T/C [15]: 107%
- viability, T/C [16]: 95%
- viability, T/C [17]: 39.9%
- viability, T/C [18]: 3.01%
- viability, T/C [19]: 85.6%
- viability, T/C [20]: 113%
- viability, T/C [21]: 113%
- viability, T/C [22]: 106%
- viability, T/C [23]: 37.8%
- viability, T/C [24]: 7.24%
- viability, T/C [25]: 92.5%
- viability, T/C [26]: 111%
- viability, T/C [27]: 121%
- viability, T/C [28]: 104%
- viability, T/C [29]: 38.5%
- viability, T/C [30]: 3.79%
- viability, T/C [31]: 72.5%
- viability, T/C [32]: 92.9%
- viability, T/C [33]: 93.5%
- viability, T/C [34]: 88.5%
- viability, T/C [35]: 33.6%
- viability, T/C [36]: 0.79%

Reference: PubChem BioAssay AID2060912 (Molecular Pharmacology Branch, DTP, NCI, 2025)
